Counter-ions that a name gives are not always drawn.
What was measured:
S1P1 human receptor = S1P1 human receptor (Homo sapiens (Human), UniProt P21453); assay: S1P1 [35S]-GTPgamaS binding assay (agonist activity); type: biochemical; conditions: for EC50: GTPgamaS binding, agonist; for EC50S1P1/EC50S1P: potency at S1P1 relative to S1P; for Efficacy (% of maximum): S1P1, relative to reference agonist S1P
Experimental: Selected Compounds of the Examples were evaluated at Millipore Corporation, USA, using S1P1 receptor; [^35S]-GTPgamaS binding assay. A [^35S]-GTPgamaS binding assay at Millipore was conducted by GPCR Profiler™ Custom Service Laboratory, Temecula, Calif., Millipore, Inc. to monitor dose-dependent agonist selectivity for selected Examples against the S1P1 receptors. The assay was completed with sample compounds subjected to an eight-point, four-fold dose response curve with starting concentration of 10 μM. Selectivity was determined upon initial addition of compounds followed by a 30 minute incubation at 30° C. Following compound incubation, bounded [^35S]-GTPgamaS was determined by filtration and scintillation counting.
Independently, selected compounds were evaluated for S1P1 and S1P3 agonistic activity. The S1P1 assay system was GTPgama-S35 binding in membranes from CHO K1 cells, expressing S1P1 human receptor. The S1P3 assay system was calcium mobilization in CHO K1 cells expressing S1P3 human receptor. […] Compounds were tested initially at a concentration of 10 μM.

[1] = test system: Human promyelocytic leukemia (HL-60) cells; assay: Cell viability (growth inhibition) assay, MTS; type: cell-based; conditions: 50% reduction in cell viability of HL-60 cells, 48 hr incubation
Experimental: In order to measure the apoptotic effect of compounds on the metabolic activity of viable cells, the following assay was performed on Human promyelocytic leukemia cells. The assay utilises the tetrazolium compound (3-(4,5-dimethylthiazol-2-yl)-5-(3-carboxymethoxyphenyl)-2-(4-sulfophenyl)-2H-tetrazolium, inner salt; (MTS) and an electron coupling reagent (phenazine methosulfate; (PMS). MTS is bioreduced by cells into a formazan product the optical absorbance of which is measured directly from 96 well assay plates. The conversion of MTS into aqueous, soluble formazan is accomplished by dehydrogenase enzymes found in metabolically active cells. The quantity of formazan product as measured by the amount of 490 nm absorbance is directly proportional to the number of living cells in culture.
The assay was based on the National Cancer Institute (NCI) protocol, briefly, cells were grown in RPMI 1640 media supplemented with 10% FCS (foetal calf serum) and kept at 37° C. in a humidified environment with 5% CO2.
For the growth inhibition assay, Human promyelocytic leukemia (HL-60) cells were seeded at a density of 10,000 cells per well in 96 well plates in a volume of 100 μl and allowed to grow for 24 h. Compounds were serially diluted in DMSO at concentrations 100 fold higher than used in the assay (100×). Compounds were freshly prepared for each experiment. The 100× stocks were then diluted to 2× stocks into media and immediately, 100 μl of this 2× stock was added to the cells to create the desired final concentration of drug with a DMSO concentration of 1%. One row of each 96 well plate was treated with DMSO alone as a control. Cells were then incubated for a further 48 hr. Metabolic activity was determined using MTS (Promega) (90% 1.6 mg/ml MTS, 10% 1.6 mg/ml PMS (phenazine methosulfate) made fresh in PBS). 50 μl of this mix was added to all wells of the plates and allowed to incubate for 1.5-2 hr. Plates were shaken gently for about 15 min and absorbance was read on a plate reader at 490 nm. Averages were taken of the readings at each point with standard deviation and plotted using MicroCal Origin.

Chain of S1P1 human receptor (P21453 whole entry): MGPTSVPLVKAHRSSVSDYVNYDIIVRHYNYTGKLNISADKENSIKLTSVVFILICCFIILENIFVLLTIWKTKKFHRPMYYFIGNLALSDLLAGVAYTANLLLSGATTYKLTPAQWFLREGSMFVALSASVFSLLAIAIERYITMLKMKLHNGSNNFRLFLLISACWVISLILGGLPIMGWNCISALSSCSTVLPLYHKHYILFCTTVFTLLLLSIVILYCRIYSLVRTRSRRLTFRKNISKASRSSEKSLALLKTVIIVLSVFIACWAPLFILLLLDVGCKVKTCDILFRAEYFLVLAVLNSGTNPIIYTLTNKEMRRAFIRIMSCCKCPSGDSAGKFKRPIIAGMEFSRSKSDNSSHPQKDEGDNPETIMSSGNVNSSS

SMILES	EC50 (S1P1 human receptor)	EC50S1P1/EC50S1P (S1P1 human receptor)	IC50 ([1]; Homo sapiens)	Efficacy (% of maximum) (S1P1 human receptor)	IC50 [1]
CC(C)(C)OC(=O)NC(CO)(CO)CN1CCc2c(OCc3cc4c(Cl)cc(Cl)cc4o3)cccc21 [41(b), t-butyl 1-(4-((4,6-dichlorobenzofuran-2-yl)methoxy)indolin-1-yl)-3-hydroxy-2-(hydroxymethyl)propan-2-ylcarbamate]	> 29000 nM	3066.24			
CCCCCCCCc1ccc(NCC(N)(CO)CO)cc1 [Example 1, 2-Amino-2-((4-octylphenylamino)methyl)propane-1,3-diol]	> 25000 nM	>9259			
CCCCCCCCc1ccc2c(ccn2CC(N)(CO)CO)c1 [Example 4, 2-Amino-2-((5-octyl-1H-indol-1-yl)methyl)propane-1,3-diol]			3580 ± 40 nM		
CCCCCCCCc1ccc2c(c1)C(=O)C(=O)N2CC(N)(CO)CO [Example 5, 1-(2-Amino-3-hydroxy-2-(hydroxymethyl)propyl)-5-octylindoline-2,3-dione]			5720 ± 2180 nM		
COc1cc(CCc2ccc3c(c2)CCN3CC(N)(CO)CO)cc(OC)c1OC [Example 6, 2-Amino-2-((5-(3,4,5-trimethoxyphenethyl)indolin-1-yl)methyl)propane-1,3-diol]			44900 ± 8850 nM		
NC(CO)(CO)CCc1ccc(CCCn2cc(C(=O)C(F)(F)F)c3ccccc32)cc1 [Example 11, 1-(1-(3-(4-(3-amino-4-hydroxy-3-(hydroxymethyl)butyl)phenyl)propyl)-1H-indol-3-yl)-2,2,2-trifluoroethanone]			5540 ± 2300 nM		
Cl.NC(CO)(CO)CCc1ccc(CCc2ccc(C(=O)c3ccc(F)cc3)cc2)cc1 [Example 12, (4-(4-(3-Amino-4-hydroxy-3-(hydroxymethyl)butyl)phenethyl)phenyl)(4-fluorophenyl)methanone hydrochloride salt]	1820 nM	557		49%	
COc1ccc2c(C(=O)c3cc(OC)c(OC)c(OC)c3)cn(S(=O)(=O)c3ccc(CCC(N)(CO)CO)cc3)c2c1 [Example 13, (1-(4-(3-Amino-4-hydroxy-3-(hydroxymethyl)butyl)phenylsulfonyl)-6-methoxy-1H-indol-3-yl)(3,4,5-trimethoxyphenyl)methanone]			440 ± 40 nM		
Cc1ccc(-c2ccc(CCC(N)(CO)CO)cc2)cc1 [Example 18, 2-Amino-2-(2-(4′-methylbiphenyl-4-yl)ethyl)propane-1,3-diol]			7070 ± 230 nM		
COc1cc(CCc2cccc(CCC(N)(CO)CO)c2)cc(OC)c1OC [Example 21, 2-Amino-2-(3-(3,4,5-trimethoxyphenethyl)phenethyl)propane-1,3-diol]			28500 ± 3210 nM		
NC(CO)(CO)CCc1ccc(O)c(C23CC4CC(CC(C4)C2)C3)c1 [Example 22, 2-Amino-2-(3-(admantyl)-4-hydroxyphenethyl)propane-1,3-diol hydrochloride salt]					10500 ± 400 nM
COc1ccc(CCc2ccc(CCC(N)(CO)CO)cc2)cc1C12CC3CC(CC(C3)C1)C2 [Example 26, 2-Amino-2-(4-(3-(1-admantanyl-4-methoxyphenethyl)phenethyl)propane-1,3-diol hydrochloride salt]					2290 ± 570 nM
CC(C)Oc1ccc(CCC(N)(CO)CO)cc1C12CC3CC(CC(C3)C1)C2 [Example 28, 2-Amino-2-(3-1-admantanyl-4-isopropoxyphenethyl)propane-1,3-diol hydrochloride salt]					1560 ± 370 nM
Cc1ccc(OCCCc2ccc(CCC(N)(CO)CO)cc2)c(C23CC4CC(CC(C4)C2)C3)c1 [Example 29, 2-Amino-2-(4-(3-(2-(1-admanynyl)-4-methylphenoxy)propyl)phenethyl) propane-1,3-diol hydrochloride salt]					3940 ± 400 nM
CCCCCCCCc1ccc(CNCC(N)(CO)CO)cc1 [Example 31, 2-Amino-2-((4-octylbenzylamino)methyl)propane-1,3-diol]			> 10000 nM		
NC(CO)(CO)CN1CCc2cc(OCc3ccc(-c4ccccc4C(F)(F)F)cc3)ccc2C1 [Example 39, 2-Amino-2-((6-((2′-(trifluoromethyl)biphenyl-4-yl)methoxy)-3,4-dihydroisoquinolin-2(1H)-yl)methyl)propane-1,3-diol]	> 3240 nM	>1000		117%	
CCCOc1ccc(-c2nc(-c3cccc4c3CCN4CC(N)(CO)CO)no2)cc1I [Example 44, 2-Amino-2-((4-(5-(3-iodo-4-propoxyphenyl)-1,2,4-oxadiazol-3-yl)indolin-1-yl)methyl)propane-1,3-diol]	48.1 nM	18.24		60%	
CCCOc1ccc(-c2nc(-c3cccc4c3CCN4CC(N)(CO)CO)no2)cc1N [Example 46, 2-Amino-2-((4-(5-(3-amino-4-propoxyphenyl)-1,2,4-oxadiazol-3-yl)indolin-1-yl)methyl)propane-1,3-diol]	88 nM	10.61		94%	
CCCc1ccc(-c2nc(-c3cccc4c3CCN4CC(N)(CO)CO)no2)cc1 [Example 48, 2-Amino-2-((4-(5-(4-propylphenyl)-1,2,4-oxadiazol-3-yl)indolin-1-yl)methyl)propane-1,3-diol]	6.7 nM	0.14		78%	
CC(C)Oc1ccc(-c2nc(-c3ccc4c(c3)CCN4CC(N)(CO)CO)no2)cc1Cl [Example 51, 2-Amino-2-((5-(5-(3-chloro-4-isopropoxyphenyl)-1,2,4-oxadiazol-3-yl)indolin-1-yl)methyl)propane-1,3-diol]	3.5 nM	0.38		85%	
CCCCOc1ccc(-c2nc(-c3ccc4c(c3)CCN4CC(N)(CO)CO)no2)cc1Cl [Example 52, 2-Amino-2-((5-(5-(4-butoxy-3-chlorophenyl)-1,2,4-oxadiazol-3-yl)indolin-1-yl)methyl)propane-1,3-diol]	34.5 nM	3.55		62%	
CCCCCOc1ccc(-c2nc(-c3ccc4c(c3)CCN4CC(N)(CO)CO)no2)cc1Cl [Example 54, 2-Amino-2-((5-(5-(3-chloro-4-(pentyloxy)phenyl)-1,2,4-oxadiazol-3-yl)indolin-1-yl)methyl)propane-1,3-diol]	43.8 nM	5.93		73%	
CCOc1ccc(-c2nc(-c3cccc4c3CCN4CC(N)(CO)CO)no2)cc1OC [Example 55, 2-Amino-2-((4-(5-(4-ethoxy-3-methoxyphenyl)-1,2,4-oxadiazol-3-yl)indolin-1-yl)methyl)propane-1,3-diol]	31.6 nM	2.56		101%	
CCCOc1ccc(-c2nc(-c3ccc4c(c3)CCN4CC(N)(CO)CO)no2)cc1Br [Example 56, 2-Amino-2-((5-(5-(3-bromo-4-propoxyphenyl)-1,2,4-oxadiazol-3-yl)indolin-1-yl)methyl)propane-1,3-diol]	2.9 nM	0.29		79%	
NC(CO)(CO)CN1CCc2cc(CCc3ccc(-c4ccccc4C(F)(F)F)cc3)ccc21 [Example 59, 2-Amino-2-((5-(2-(2′-(trifluoromethyl)biphenyl-4-yl)ethyl)indolin-1-yl)methyl)propane-1,3-diol]	> 2130 nM	>1000			
